Legend:
Type in all cases: ADME
[1] = Half life period in the presence of alpha-chymotrypsin at the concentration of 0.25 mg/ml
[2] = Half life period in buffer solution at pH 7.4
[3] = Half life period in the presence of alpha-chymotrypsin at the concentration of 1.0 mg/mL
[4] = Half life period in the presence of alpha-chymotrypsin at the concentration of 0.5 mg/ml
[5] = Half life period in buffer solution at pH 7.4: found to be stable

Row | half-life [1] [h] | half-life [2] [h] | half-life [3] [h] | half-life [4] [h] | Structure (SMILES) | T1/2 [5]
1 | 0.55 | 0.633 | 0.533 | 0.583 | CC(=O)N(CO)C(Cc1ccccc1)C(N)=O (stereo unspecified) | 
2 | 9.6 |  | 2.3 | 4.9 | CC(=O)NC(Cc1ccccc1)C(N)=O (stereo unspecified) | Stable
3 | 1.08 | 1.05 | 1.05 | 1.07 | CC(=O)N(CO)C(Cc1ccccc1)C(=O)NCc1ccccc1 (stereo unspecified) | 

Row | Structure (SMILES) | half-life [1] [h] | half-life [2] [h] | half-life [3] [h] | half-life [4] [h] | T1/2 [5]
4 | CC(=O)NC(Cc1ccccc1)C(=O)NCc1ccccc1 (stereo unspecified) | 15 |  | 3.9 | 7.5 | Stable
